Measurements from US8637525B2, “Compounds for the reduction of beta-amyloid production” (Bristol-Myers Squibb Company, priority 2009, dated 2014).
Structures can show the parent of a compound that is named as a salt.

The compounds below were run on Aβ1-42 production (assay: Cellular assay for inhibition of Aβ1-42 production (H4 APP751 SWE clone 8.20)). Conditions: 19 h, H4 APP751 SWE clone 8.20 cells, 19 h incubation; class symbols; read-out: Activity Rating (Aβ42 cellular IC50).
Type: cell-based
Method: Cellular Assays for Inhibition of Aβ1-40 and Aβ1-42 Production
H4 cells stably transfected with APP751 containing the Swedish mutation (H4 APP751 SWE clone 8.20, developed at BMS) were maintained in log phase through twice weekly passage at a 1:20 split. […] Following incubation for 19 h in 5% CO2 at 37° C., plates were briefly centrifuged (1000 rpm, 5 min). A 10 μl aliquot from each well was transferred to a second assay plate (Costar 3709) for Aβ40 measurements. Antibody cocktails were freshly prepared by dilution into 40 mM Tris-HCl (pH 7.4) with 0.2% BSA and added to assay plates. For Aβ42 measurements, antibodies specific for the Aβ42 neoepitope (565, developed at BMS; conjugated to the Wallac reagent (Perkin Elmer)) and the N-terminal sequence of Aβ peptide (26D6, developed at SIBIA; conjugated to APC (Perkin Elmer)) were mixed and 20 μl of the mixture was added to each well of the incubated cell plate yielding a final concentration of 0.8 ng/well 565 and 75 ng/well 26D6. For the Aβ40 measurements, antibodies specific for the Aβ40 neoepitope (TSD, developed at BMS; conjugated to the Wallac reagent (Perkin Elmer)) and 26D6 as described above were mixed and 20 μl of the mixture was added to the 10 μl aliquots which had been removed previously from the cell plate yielding a final concentration of 1.6 ng/well TSD and 17.5 ng/well 26D6. Assay plates containing antibodies were sealed with aluminum foil and incubated overnight at 4° C. Signal was determined using a Viewlux counter (Perkin Elmer) and IC50 values determined using curve fitting in CurveMaster (Excel Fit based).
Work on CCNc1nc(Nc2ccc(-n3ncnc3C)c(F)c2)nc2c1COCC2c1ccc(C(F)(F)F)cc1 (stereo not drawn) [Example 119B, N4-ethyl-N2-(3-fluoro-4-(5-methyl-1H-1,2,4-triazol-1-yl)phenyl)-8-(4-(trifluoromethyl)phenyl)-7,8-dihydro-5H-pyrano[4,3-d]pyrimidine-2,4-diamine] yielded an IC50 of 100 to 1000 nM.
Work on CCNc1nc(Nc2ccc(-n3cnc(Cl)c3)c(OC)c2)nc2c1CCC2c1ccc(OC(F)(F)F)cc1 (racemic) [Example 98, N^2-(4-(4-Chloro-1H-imidazol-1-yl)-3-methoxyphenyl)-N^4-ethyl-7-(4-(trifluoromethoxy)phenyl)-6,7-dihydro-5H-cyclopenta[d]pyrimidine-2,4-diamine] yielded an IC50 of 10 to 100 nM.
COc1cc(Nc2nc(NC(C)C)c3c(n2)C(c2ccccc2)CC3)ccc1-n1cnc(Cl)c1 (stereo not drawn) [Example 10, N2-(4-(4-chloro-1H-imidazol-1-yl)-3-methoxyphenyl)-N4-isopropyl-7-phenyl-6,7-dihydro-5H-cyclopenta[d]pyrimidine-2,4-diamine] was tested, and the IC50 was 1.5 to 9.9 nM.
CCNc1nc(Nc2ccc(-n3ncnc3C)c(F)c2)nc2c1COCC2c1ccc(C(F)(F)F)cc1 (racemic) [Example 119, N4-ethyl-N2-(3-fluoro-4-(5-methyl-1H-1,2,4-triazol-1-yl)phenyl)-8-(4-(trifluoromethyl)phenyl)-7,8-dihydro-5H-pyrano[4,3-d]pyrimidine-2,4-diamine, TFA] gave an IC50 of 10 to 100 nM.
Compound CCNc1nc(Nc2ccc(-n3cnc(Cl)c3)c(OC)c2)nc2c1CN(C(=O)C1CC1)CC2c1ccccc1 (stereo not drawn) [Example 132, (2-(4-(4-chloro-1H-imidazol-1-yl)-3-methoxyphenylamino)-4-(ethylamino)-8-phenyl-7,8-dihydropyrido[4,3-d]pyrimidin-6(5H)-yl)(cyclopropyl)methanone] has an IC50 of 10 to 100 nM.
Compound CCN1Cc2c(nc(Nc3ccc(-n4cnc(Cl)c4)c(OC)c3)nc2N(C)CC)C(c2ccc(F)cc2)C1 (stereo not drawn) [Example 158, N2-(4-(4-chloro-1H-imidazol-1-yl)-3-methoxyphenyl)-N4,6-diethyl-8-(4-fluorophenyl)-N4-methyl-5,6,7,8-tetrahydropyrido[4,3-d]pyrimidine-2,4-diamine] has an IC50 of 10 to 100 nM.
COc1cc(Nc2nc3c(c(N(C)C)n2)CCC3c2ccccc2)ccc1-n1cnc(Cl)c1 (stereo not drawn) [Example 4, N^2-(4-(4-Chloro-1H-imidazol-1-yl)-3-methoxyphenyl)-N^4,N^4-dimethyl-7-phenyl-6,7-dihydro-5H-cyclopenta[d]pyrimidine-2,4-diamine] gave an IC50 of 1.5 to 9.9 nM.
COc1cc(Nc2nc3c(c(N4CC(F)(F)C4)n2)CN(C)CC3c2ccc(F)cc2)ccc1-n1cnc(Cl)c1 (stereo not drawn) [Example 159, N-(4-(4-chloro-1H-imidazol-1-yl)-3-methoxyphenyl)-4-(3,3-difluoroazetidin-1-yl)-8-(4-fluorophenyl)-6-methyl-5,6,7,8-tetrahydropyrido[4,3-d]pyrimidin-2-amine] gave an IC50 of 10 to 100 nM.
In the case of CNc1nc(Nc2ccc(-n3cnc(Cl)c3)c(OC)c2)nc2c1CCC2c1cc(F)cc(F)c1 (racemic) [Example 102, N^2-(4-(4-Chloro-1H-imidazol-1-yl)-3-methoxyphenyl)-7-(3,5-difluorophenyl)-N^4-methyl-6,7-dihydro-5H-cyclopenta[d]pyrimidine-2,4-diamine], the IC50 is reported as 1.5 to 9.9 nM.

Same assay, conditions: 19 h, H4 APP751 SWE clone 8.20 cells, 19 h incubation; read-out: Activity Rating (Aβ42 cellular IC50), numeric value
Compound COc1cc(Nc2nc3c(c(N4CC(F)(F)C4)n2)CCC3c2ccc(Cl)cc2)ccc1-n1cnc(Cl)c1 (stereo not drawn) [Example 93, N-(4-(4-Chloro-1H-imidazol-1-yl)-3-methoxyphenyl)-7-(4-chlorophenyl)-4-(3,3-difluoroazetidin-1-yl)-6,7-dihydro-5H-cyclopenta[d]pyrimidin-2-amine] has an IC50 of 20 nM.
In the case of CNc1nc(Nc2ccc(C#N)cc2)nc2c1CCC2c1ccccc1 (stereo not drawn) [Example 225, 4-(4-(methylamino)-7-phenyl-6,7-dihydro-5H-cyclopenta[d]pyrimidin-2-ylamino)benzonitrile], the IC50 is reported as 18 nM.
Compound COc1cc(Nc2nc3c(c(N4C[C@@H]5C[C@H]4CO5)n2)CCC3c2ccc(F)cc2)ccc1-n1cnc(Cl)c1 (single isomer, unassigned) [Example 18A] has an IC50 of 8.8 nM.
Work on COc1cc(Nc2nc3c(c(N4CCC(F)C4)n2)COCC3c2ccc(F)cc2)ccc1-n1cnc(Cl)c1 (stereo in doubt) [Example 57A, N-(4-(4-chloro-1H-imidazol-1-yl)-3-methoxyphenyl)-8-(4-fluorophenyl)-4-((R)-3-fluoropyrrolidin-1-yl)-7,8-dihydro-5H-pyrano[4,3-d]pyrimidin-2-amine] yielded an IC50 of 14 nM.
COc1cc(Nc2nc3c(c(N4CCC(F)C4)n2)CCOC3c2ccc(F)cc2)ccc1-n1cnc(Cl)c1 (stereo in doubt) [Example 90B, N-(4-(4-chloro-1H-imidazol-1-yl)-3-methoxyphenyl)-8-(4-fluorophenyl)-4-((R)-3-fluoropyrrolidin-1-yl)-6,8-dihydro-5H-pyrano[3,4-d]pyrimidin-2-amine] gave an IC50 of 270 nM.

Same assay, conditions: H4 APP751 SWE clone 8.20 cells, 19 h incubation; class symbols; TFA; read-out: Activity Rating (Aβ42 cellular IC50)
COc1cc(Nc2nc(N[C@H](C)C3CC3)c3c(n2)C(c2ccc(F)cc2)CC3)ccc1-n1cnc(Cl)c1 (mixture of isomers) [Example 49, N2-(4-(4-chloro-1H-imidazol-1-yl)-3-methoxyphenyl)-N4-((R)-1-cyclopropylethyl)-7-(4-fluorophenyl)-6,7-dihydro-5H-cyclopenta[d]pyrimidine-2,4-diamine, 2 TFA] gave an IC50 of 1.5 to 9.9 nM.

Same assay, conditions: H4 APP751 SWE clone 8.20 cells, 19 h incubation; class symbols; read-out: Activity Rating (Aβ42 cellular IC50)
In the case of CCN(C)c1nc(Nc2ccc(-n3cnc(Cl)c3)c(OC)c2)nc2c1CCN(S(C)(=O)=O)C2c1ccc(F)cc1 (stereo not drawn) [Example 172A, N2-(4-(4-chloro-1H-imidazol-1-yl)-3-methoxyphenyl)-N4-ethyl-8-(4-fluorophenyl)-N4-methyl-7-(methylsulfonyl)-5,6,7,8-tetrahydropyrido[3,4-d]pyrimidine-2,4-diamine], the IC50 is reported as 1.5 to 9.9 nM.
Work on COc1cc(Nc2nc3c(c(N4CC=C(F)CC4)n2)CCC3c2ccc(F)cc2)ccc1-n1cnc(Cl)c1 (stereo not drawn) [Example 40B, N-(4-(4-chloro-1H-imidazol-1-yl)-3-methoxyphenyl)-4-(4-fluoro-5,6-dihydropyridin-1(2H)-yl)-7-(4-fluorophenyl)-6,7-dihydro-5H-cyclopenta[d]pyrimidin-2-amine] yielded an IC50 of 100 to 1000 nM.
Compound CNc1nc(Nc2ccc(-n3ncnc3C)c(F)c2)nc2c1COCC2c1ccc(Cl)cc1 (single isomer, unassigned) [Example 69B, 8-(4-chlorophenyl)-N^2-(3-fluoro-4-(5-methyl-1H-1,2,4-triazol-1-yl)phenyl)-N^4-methyl-7,8-dihydro-5H-pyrano[4,3-d]pyrimidine-2,4-diamine] has an IC50 of 100 to 1000 nM.
CNc1nc(Nc2ccc(-n3ncnc3C)c(OC)c2)nc2c1CN(C)CC2c1ccc(F)cc1 (stereo not drawn) [Example 199, 8-(4-fluorophenyl)-N2-(3-methoxy-4-(5-methyl-1H-1,2,4-triazol-1-yl)phenyl)-N4,6-dimethyl-5,6,7,8-tetrahydropyrido[4,3-d]pyrimidine-2,4-diamine] showed an IC50 of 10 to 100 nM.
COc1cc(Nc2nc3c(c(N4CC[C@@H](F)C4)n2)COC3c2ccc(F)cc2)ccc1-n1cnc(Cl)c1 (single isomer, unassigned) [Example 83B] gave an IC50 of 10 to 100 nM.

Same assay, conditions: H4 APP751 SWE clone 8.20 cells, 19 h incubation; read-out: Activity Rating (Aβ42 cellular IC50), numeric value
For COc1cc(Nc2nc3c(c(N(C)C)n2)COCC3c2ccc(Cl)cc2)ccc1-n1cnc(Cl)c1 (single isomer, unassigned) [Example 65B, N^2-(4-(4-chloro-1H-imidazol-1-yl)-3-methoxyphenyl)-8-(4-chlorophenyl)-N^4,N^4-dimethyl-7,8-dihydro-5H-pyrano[4,3-d]pyrimidine-2,4-diamine], the IC50 was 160 nM.
